Format in all cases: in vivo
Experiment [1] concerns larvae of the banded cucumber beetle (Diabrotica balteata). The experiment can be described thus: Diabrotica balteata spray test. Particulars: 168 h, after 7 days, read-out: efficacy (seedling growth); for pest or weed control at 6.4 µg/disc, 20 g/ha: 20 g/ha (=6.4 μg/well). In a few lines: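 Efficacy was read 7 days after infesting each unit with 10–20 banded cucumber beetle larvae, as % of seedlings growing like untreated, uninfested controls. Before infestation, wheat seeds germinated 1 day on agar (5 per well) were sprayed with the active ingredient. The active was formulated in acetone/DMF and diluted in water containing emulsifier.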

The subject of experiment [2] is adult engorged female ticks (Rhipicephalus microplus). The experiment can be described thus: Rhipicephalus (Boophilus) microplus injection test. Particulars: 168 h, 4 μg/animal, egg deposition after 7 days, read-out: efficacy (infertile eggs). In outline:
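Abdominal injection, 1 μL compound/DMSO, n=5 engorged adult females; climate-chamber incubation. Readout d7: fertile egg laying; doubtful eggs held to hatch (~42 d). % efficacy = infertile eggs (100% all infertile).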

Experiment [3] has as its system Rhipicephalus (Boophilus) microplus larvae (strain Parkhurst, resistant against synthetic pyrethroids). The experiment can be described thus: Rhipicephalus (Boophilus) microplus in-vitro contact test, larval cattle tick. Particulars: after 48 hours, read-out: efficacy (larvae dead or moribund); for pest or weed control at 1 µg/cm2, 100 g/ha: 1 μg/cm^2 (=100 g/ha); for pest or weed control at 5 µg/cm2, 500 g/ha: 5 μg/cm^2 (=500 g/ha). In outline:
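Pyrethroid-resistant larvae (strain Parkhurst), 20–50 per tube, exposed by contact to a dried acetone film of compound (5 μg/cm² at 900 ppm) for 48 h at 27 °C and 85% humidity. Percent dead or moribund larvae scored from negative geotactic behaviour.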

For experiment [4], the system named is adult flies Musca domestica strain WHO-N. The experiment can be described thus: Musca domestica test (MUSCDO surface treatment & contact assay). Particulars: 24 hours after contact, read-out: mortality (efficacy); for mortality at 20 mg/m2: surface concentration 20 mg/m^2, 30 minutes exposure. The protocol: Musca domestica Test (MUSCDO Surface Treatment & Contact Assay)
(§1) Solvent: Aceton+2000 ppm rapeseed oil methyl ester (RME)
In order to produce a sufficient, active ingredient containing solution it is necessary to solve the test compound in the solvent-mix (acetone at 2 mg/ml/RME 2000 ppm). This solution is pipetted onto a glazed tile and after evaporation of the acetone, adult flies of the species Musca domestica strain WHO-N are placed onto the dried surface. The exposure time is 30 minutes.
(§2) Mortality in percent (%) is determined 24 hours after contact of the insects to the treated surface. 100% mortality means that all tested insects are dead, whereas 0% means that no insect died.

In experiment [5] the test system is green peach aphid (Myzus persicae). The experiment can be described thus: Myzus persicae spray test. As to conditions: foliar, 120 h, Chinese cabbage leaf disks, after 5 days. As for the experimental part: Myzus persicae—Spray Test
Solvent: 78.0 parts by weight acetone • 1.5 parts by weight dimethylformamide
Emulsifier: alkylarylpolyglycol ether
To produce a suitable preparation of active compound, 1 part by weight of active compound is mixed with the stated amount of solvents and is diluted with water, containing an emulsifier concentration of 1000 ppm, to the desired concentration. Further test concentrations are prepared by dilution with emulsifier containing water.
Chinese cabbage (Brassica pekinensis) leaf disks infected with all instars of the green peach aphid (Myzus persicae), are sprayed with a preparation of the active ingredient of the desired concentration.
(§3) After 5 days mortality in % is determined. 100% means all aphids have been killed and 0% means none of the aphids have been killed.

For experiment [6] the test system is unchanged. The experiment can be described thus: Myzus persicae oral test. Particulars: 120 h, 0.8 ppm, after 5 days. As for the experimental part: Solvent: 100 parts by weight acetone
To produce a suitable preparation of active compound, 1 part by weight of active compound is mixed with the stated amount of solvent, and the concentrate is diluted with water to the desired concentration.
50 μL compound solution is filled in microtiter plates and 150 μL IPL41 insect medium (33%+15% sugar) is added to obtain a total volume of 200 μL per well. Afterwards the plates are sealed with parafilm through which a mixed population of the green peach aphid (Myzus persicae) can suck on the compound preparation.
as §3

Experiment [7] deals with adult Blattella germanica strain PAULINIA
The experiment can be described thus: Blattella germanica test (BLTTGE surface treatment & contact assay). As to conditions: surface concentration 20 mg/m^2, 30 minutes exposure, 24 hours after contact, read-out: mortality (efficacy). The protocol: Blattella germanica Test (BLTTGE Surface Treatment & Contact Assay)
as §1
In order to produce a sufficient, active ingredient containing solution it is necessary to solve the test compound in the solvent-mix (acetone at 2 mg/ml/RME 2000 ppm). This solution is pipetted onto a glazed tile and after evaporation of the acetone, adult animals of the species Blattella germanica strain PAULINIA are placed onto the dried surface. The exposure time is 30 minutes.
as §2

In experiment [8] the test system is adult mosquitoes Aedes aegypti strain MONHEIM. The experiment can be described thus: Aedes aegypti test (AEDSAE surface treatment & contact assay). Particulars: 24 hours after contact, read-out: mortality (efficacy); for mortality at 4 mg/m2: surface concentration 4 mg/m^2, 30 minutes exposure; for mortality at 20 mg/m2: surface concentration 20 mg/m^2, 30 minutes exposure. As for the experimental part:
Aedes aegypti Test (AEDSAE Surface Treatment & Contact Assay)
as §1
In order to produce a sufficient, active ingredient containing solution it is necessary to solve the test compound in the solvent-mix (acetone at 2 mg/ml/RME 2000 ppm). This solution is pipetted onto a glazed tile and after evaporation of the acetone, adult mosquitoes of the species Aedes aegypti strain MONHEIM are placed onto the dried surface. The exposure time is 30 minutes.
as §2

Experiment [9] relates to fall armyworm larvae (Spodoptera frugiperda). The experiment can be described thus: Spodoptera frugiperda spray test. Particulars: 168 h, maize leaf sections, after 7 days. In outline: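 Percent larval kill read at day 7, from 0% (no caterpillars dead) to 100% (all dead). Larvae were placed on dried Zea mays leaf discs previously sprayed with test preparations made from an acetone/DMF solution diluted in 1000 ppm emulsifier-containing water.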

SMILES strings stand for the structures.

In general, mortality refers to the share of the test organisms that died.

As to `CC(NC(=O)c1cc(C(F)(F)F)cc(C(F)(F)F)c1)c1nccnc1-c1ncccn1` (racemic) [Example I-8, (rac)-N-(1-(3-(Pyrimidin-2-yl)pyrazin-2-yl)ethyl)-3,5-bis(trifluoromethyl)benzamide], the pest or weed control at 6.4 µg/disc, 20 g/ha in experiment [1] worked out at 100%. Moreover, the pest or weed control at 0.004 mg in [2] is 100%. Moreover, the pest or weed control at 1 µg/cm2, 100 g/ha in experiment [3] is 100%. In addition, the pest or weed control at 5 µg/cm2, 500 g/ha in [3] amounted to 100%. For the same molecule, the mortality at 4 mg/m2 in experiment [4] (surface concentration 4 mg/m^2, 30 minutes exposure) was in the range of 80 to 100%; in experiment [8] it was 80 to 100%. The mortality at 20 mg/m2 in [4], in experiment [7] and in experiment [8] was 80 to 100% throughout. In addition, the mortality at 100 g/ha in experiment [5] and in experiment [9] was 100% each time. The molecule also had a mortality at 0.8 ppm in [6] of 100%.
Turning to `CC(NC(=O)c1cc(Cl)cc(C(F)(F)F)c1)c1nccnc1-c1ncccn1` (racemic) [Example I-10, (rac)-3-Chloro-N-(1-(3-(pyrimidin-2-yl)pyrazin-2-yl)ethyl)-5-(trifluoromethyl)benzamide], the pest or weed control at 6.4 µg/disc, 20 g/ha in experiment [1] came out at 100%. Also, the pest or weed control at 32 µg/disc, 100 g/ha in [1] (100 g/ha (=32 μg/well)) amounted to 100%. In [2], the pest or weed control at 0.004 mg came to 100%. Further, the pest or weed control at 1 µg/cm2, 100 g/ha in experiment [3] stood at 90%. The pest or weed control at 5 µg/cm2, 500 g/ha in experiment [3] came out at 80%. For the same molecule, the mortality at 20 mg/m2 in experiment [4], in experiment [7] and in [8] was 80 to 100% in each case. Moreover, the mortality at 100 g/ha in experiment [5] and in experiment [9] was 100% each time. In experiment [6], this molecule came in with a mortality at 0.8 ppm of 90%. Further, in experiment [8], the mortality at 4 mg/m2 lay in the range of 80 to 100%.

Source of the values: patent publication US12583851B2, “Heteroaryl-substituted pyrazine derivatives as pesticides” (Elanco Animal Health GmbH, priority 2019, dated 2026).
